Measurements taken from PubChem BioAssay (NCI).
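Following 48 hours of exposure in 96-well plates, responses at five concentrations were used to interpolate endpoints linearly. Abbreviation: GI50, concentration required for 50% inhibition of growth. TGI is the concentration that stops growth completely.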

Legend:
Test in all cases: growth of human tumour cells (NCI), 48 h
[1] = tested on: PC-3 prostate
[2] = tested on: UACC-257 melanoma
[3] = tested on: UO-31 renal
[4] = tested on: EKVX NSCLC
[5] = tested on: OVCAR-3 ovarian
[6] = tested on: MDA-MB-231 breast
[7] = tested on: RPMI-8226 leukemia
[8] = tested on: NCI-H522 lung
[9] = tested on: HCT-15 colon
[10] = tested on: SW-620 colon
[11] = tested on: HT29 colon
[12] = tested on: UACC-62 melanoma
[13] = tested on: OVCAR-8 ovarian
[14] = tested on: NCI-H226 lung
[15] = tested on: SNB-75 CNS
[16] = tested on: U251 CNS
[17] = tested on: SK-OV-3 ovarian
[18] = tested on: SN12C renal
[19] = tested on: OVCAR-5 ovarian
[20] = tested on: A549 NSCLC
[21] = tested on: T-47D breast
[22] = tested on: HCT-116 colon
[23] = tested on: MCF7 breast
[24] = tested on: SK-MEL-5 melanoma
[25] = tested on: OVCAR-4 ovarian
[26] = tested on: SK-MEL-28 melanoma
[27] = tested on: SF-539 CNS
[28] = tested on: NCI-H460 lung
[29] = tested on: MDA-MB-435
[30] = tested on: SK-MEL-2 melanoma
[31] = tested on: A498 renal
[32] = tested on: SF-268 CNS
[33] = tested on: M14 melanoma
[34] = tested on: COLO 205 colon
[35] = tested on: 786-0 renal
[36] = tested on: NCI/ADR-RES ovarian
[37] = tested on: ACHN renal
[38] = tested on: IGROV1 ovarian
[39] = tested on: NCI-H23 lung
[40] = tested on: RXF 393 renal
[41] = tested on: TK-10 renal
[42] = tested on: SNB-19 CNS
[43] = tested on: CAKI-1 renal
[44] = tested on: HOP-92 NSCLC
[45] = tested on: HCC-2998 colon
[46] = tested on: BT-549 breast
[47] = tested on: KM12 colon
[48] = tested on: DU-145 prostate
[49] = tested on: SF-295 CNS
[50] = tested on: MALME-3M melanoma
[51] = tested on: LOX IMVI melanoma

## Cc1cc(C)c(-c2c(N)cc(Br)cc2Br)c(N)c1
[1]
  GI50: 6.42 µM
  TGI: 26.5 µM
[2]
  GI50: 5.84 µM
  TGI: 22.1 µM
[3]
  GI50: 5.4 µM
  TGI: 20 µM
[4]
  GI50: 5.15 µM
  TGI: 26.3 µM
[5]
  GI50: 3.09 µM
  TGI: 8.74 µM
[6]
  GI50: 4.85 µM
  TGI: 19 µM
[7]
  GI50: 5.19 µM
  TGI: 19.6 µM
[8]
  GI50: 4.85 µM
  TGI: 19.1 µM
[9]
  GI50: 4.7 µM
  TGI: 17.3 µM
[10]
  GI50: 3.93 µM
  TGI: 16 µM
[11]
  GI50: 3.49 µM
  TGI: 13.1 µM
[12]
  GI50: 4.3 µM
  TGI: 17.2 µM
[13]
  GI50: 10.2 µM
  TGI: 31.7 µM
[14]
  GI50: 11.8 µM
  TGI: 26.5 µM
[15]
  GI50: 2.48 µM
  TGI: 10.1 µM
[16]
  GI50: 4.73 µM
  TGI: 17 µM
[17]
  GI50: 3.53 µM
  TGI: 14.3 µM
[18]
  GI50: 7.41 µM
  TGI: 21.9 µM
[19]
  GI50: 11.6 µM
  TGI: 25.6 µM
[20]
  GI50: 5.62 µM
  TGI: 19.6 µM
[21]
  GI50: 5.71 µM
  TGI: 19.3 µM
[22]
  GI50: 4.35 µM
  TGI: 15.6 µM
[23]
  GI50: 4.03 µM
  TGI: 13.8 µM
[24]
  GI50: 3.82 µM
  TGI: 13.9 µM
[25]
  GI50: 8.43 µM
  TGI: 22.3 µM
[26]
  GI50: 6.25 µM
  TGI: 21 µM
[27]
  GI50: 2.94 µM
  TGI: 9.87 µM
[28]
  GI50: 4.5 µM
  TGI: 16.7 µM
[29]
  GI50: 2.29 µM
  TGI: 7.37 µM
[30]
  GI50: 3.95 µM
  TGI: 14.1 µM
[31]
  GI50: 2.35 µM
  TGI: 14.4 µM
[32]
  GI50: 7.86 µM
  TGI: 21.5 µM
[33]
  GI50: 4.4 µM
  TGI: 15.7 µM
[34]
  GI50: 4.93 µM
  TGI: 15.6 µM
[35]
  GI50: 7.75 µM
  TGI: 21.6 µM
[36]
  GI50: 2.98 µM
  TGI: 9.11 µM
[37]
  GI50: 10 µM
  TGI: 22.8 µM
[38]
  GI50: 6.13 µM
  TGI: 22.7 µM
[39]
  GI50: 4.89 µM
  TGI: 18 µM
[40]
  GI50: 3.16 µM
  TGI: 8.78 µM
[41]
  GI50: 7.17 µM
  TGI: 20.5 µM
[42]
  GI50: 6.68 µM
  TGI: 26.4 µM
[43]
  GI50: 3.83 µM
  TGI: 19.1 µM
[44]
  GI50: 2.77 µM
  TGI: 9.4 µM
[45]
  GI50: 10.9 µM
  TGI: 23.1 µM
[46]
  GI50: 5.76 µM
  TGI: 18.2 µM
[47]
  GI50: 3.89 µM
  TGI: 14.5 µM
[48]
  GI50: 4.33 µM
  TGI: 16.4 µM
[49]
  GI50: 3.16 µM
  TGI: 14.8 µM
[50]
  GI50: 5.09 µM
  TGI: 20.3 µM
[51]
  GI50: 5.21 µM
  TGI: 18 µM
